Results published in patent US5525742A, “Azidophenylcyanoguanidines as photoaffinity probes” (The Upjohn Company, priority 1994, dated 1996).
Where “and” joins values, the source holds several entries; their conditions need not be identical. Equal values may be shown once. Blank lines part the entries; values can stand above or below the compound they belong to.

Legend:
[1] = target: T1, KATP channel in A10 rat aortic smooth muscle cells (Rattus norvegicus, UniProt Q63563); assay: A10 membrane potential assay (DiBAC4(3) fluorescence), KATP channel opening; assay type: cell-based; settings: for block of the hyperpolarizing effect by glyburide: 10 μM glyburide; for block of the hyperpolarizing effect by glyburide / EC50: A10 cells; for EC50: hyperpolarization of membrane potential; for potency relative to N-cyano-N'-(1,1-dimethylpropyl)-N''-3-pyridinylguanidine: A10 membrane potential assay
T1 construct: resting membrane potential of A10 rat aortic smooth muscle cells; host or cells: A10 rat aortic smooth muscle cells
T1 sequence (Q63563 1-1545 isoform Q63563-2): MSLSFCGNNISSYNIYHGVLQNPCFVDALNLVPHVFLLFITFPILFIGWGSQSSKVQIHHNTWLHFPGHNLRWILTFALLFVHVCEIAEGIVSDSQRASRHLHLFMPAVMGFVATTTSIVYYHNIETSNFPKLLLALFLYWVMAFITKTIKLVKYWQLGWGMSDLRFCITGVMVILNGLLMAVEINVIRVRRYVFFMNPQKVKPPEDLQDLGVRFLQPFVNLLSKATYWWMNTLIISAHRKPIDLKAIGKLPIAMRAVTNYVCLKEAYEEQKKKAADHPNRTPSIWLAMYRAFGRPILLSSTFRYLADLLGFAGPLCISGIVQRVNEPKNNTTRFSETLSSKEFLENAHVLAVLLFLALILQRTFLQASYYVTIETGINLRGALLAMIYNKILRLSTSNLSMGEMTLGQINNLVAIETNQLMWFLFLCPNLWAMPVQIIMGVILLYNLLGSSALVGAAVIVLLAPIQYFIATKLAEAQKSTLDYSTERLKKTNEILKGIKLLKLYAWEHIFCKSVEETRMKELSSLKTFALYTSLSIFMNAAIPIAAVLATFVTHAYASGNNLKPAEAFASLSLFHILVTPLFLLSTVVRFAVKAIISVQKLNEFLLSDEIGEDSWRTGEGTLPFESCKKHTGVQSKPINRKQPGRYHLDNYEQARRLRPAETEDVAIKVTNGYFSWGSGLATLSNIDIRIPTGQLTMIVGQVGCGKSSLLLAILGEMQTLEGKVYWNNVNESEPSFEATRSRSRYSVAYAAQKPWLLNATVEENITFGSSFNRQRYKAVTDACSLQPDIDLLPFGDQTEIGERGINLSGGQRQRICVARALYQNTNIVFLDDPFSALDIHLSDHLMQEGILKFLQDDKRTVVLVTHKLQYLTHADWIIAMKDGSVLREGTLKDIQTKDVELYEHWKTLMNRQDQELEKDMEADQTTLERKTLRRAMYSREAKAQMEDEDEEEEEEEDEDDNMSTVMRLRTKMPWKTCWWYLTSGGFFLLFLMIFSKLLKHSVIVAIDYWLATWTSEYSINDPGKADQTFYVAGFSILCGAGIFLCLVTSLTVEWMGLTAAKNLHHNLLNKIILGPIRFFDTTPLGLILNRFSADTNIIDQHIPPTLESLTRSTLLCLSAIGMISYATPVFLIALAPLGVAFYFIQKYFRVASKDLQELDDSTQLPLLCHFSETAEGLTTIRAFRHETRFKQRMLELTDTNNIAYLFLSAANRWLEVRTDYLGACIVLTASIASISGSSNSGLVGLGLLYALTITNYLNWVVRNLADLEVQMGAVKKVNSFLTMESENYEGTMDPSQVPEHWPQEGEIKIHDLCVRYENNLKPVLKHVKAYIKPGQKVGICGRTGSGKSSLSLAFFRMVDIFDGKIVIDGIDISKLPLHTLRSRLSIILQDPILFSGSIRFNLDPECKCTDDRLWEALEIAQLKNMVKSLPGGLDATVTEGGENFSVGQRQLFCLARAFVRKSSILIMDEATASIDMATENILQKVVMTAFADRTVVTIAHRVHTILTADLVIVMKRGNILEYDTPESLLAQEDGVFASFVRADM
T1 sequence (Q63664 whole entry partner): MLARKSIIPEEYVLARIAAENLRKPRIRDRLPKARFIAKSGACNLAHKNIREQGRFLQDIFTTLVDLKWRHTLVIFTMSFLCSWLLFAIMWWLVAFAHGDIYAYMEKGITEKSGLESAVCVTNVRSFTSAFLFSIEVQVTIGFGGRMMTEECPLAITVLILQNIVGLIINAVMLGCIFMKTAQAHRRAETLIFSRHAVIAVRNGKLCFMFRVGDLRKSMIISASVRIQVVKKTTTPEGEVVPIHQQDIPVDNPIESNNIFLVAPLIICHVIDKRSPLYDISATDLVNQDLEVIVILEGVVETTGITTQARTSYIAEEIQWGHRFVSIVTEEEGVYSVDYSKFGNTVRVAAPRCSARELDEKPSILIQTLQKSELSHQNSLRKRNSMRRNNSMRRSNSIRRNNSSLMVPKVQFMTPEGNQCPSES
Excerpt: (§1) Compounds that modulate KATP channel activity were examined by quantitating the effect of these compounds on the resting membrane potential of A10 rat aortic smooth muscle cells (American Type Culture Collection, number CRL-1476) using a fluorescent, potentialsensitive dye and an instrument to measure changes in cellular fluorescence. The dye of choice is bis(1,3-dibutylbarbituric acid)trimethine oxonol) DiBAC4 (3). Other voltage sensitive dyes could also be used. To optically measure changes in membrane potential, cells were subcultured onto coverglass chambers and grown to confluence. Immediately prior to analysis, cells were washed several times with Earle's balanced salt solution that was buffered to pH 7.4 with 20 mM Hepes (EBSS-H) and then placed in the buffer containing 5 μM DiBAC4 (3). Fluorescent imaging of membrane potential was carried out after the cells were equilibrated with 5 μM DiBAC4 (3) for at least 15 min at 37° C. and then placed in a 35° C. temperature-regulated mini-incubator that was mounted on the stage of laser based imaging cytometer (ACAS 570, Meridian Instruments). The ACAS 570 was configured to excite the cells at 488 nm using an argon ion laser. The fluorescent emission was monitored at 525 nm. To determine the effect of azidophenylcyanoguanidines on membrane potential, the ACAS 570 was configured to collect data once every 60 seconds for at least 25 minutes using the Kinetic program within the ACAS software. In all cases, 7 min. of baseline data were collected before the addition of the compound of interest. Changes in membrane potential were computed using a logistical model developed at Upjohn Laboratories. Control experiments established that solvents such as dimethylsulfoxide and ethanol had no effect at concentrations up to 0.8%.
In FIG. 1 the Y axis represents the change in membrane potential elicited by N-cyano-N'-(1,1-dimethylpropyl)-N''-3-pyridinylguanidine. A positive change represents a hyperpolarization of the membrane potential caused by an opening of a KATP channel. The X axis represents increasing concentrations of N-cyano-N'-(1,1-dimethylpropyl)-N''-3-pyridinylguanidine. […] The EC50 for N-cyano-N'-(1,1-dimethylpropyl)-N''-3-pyridinylguanidine in the A10 membrane potential assay is 30 nM. […] In FIG. 2 the Y axis represents change in membrane potential elicited by Example 1. A positive change represents a hyperpolarization of the membrane potential caused by an opening of a KATP channel. The X axis represents increasing concentrations of Example 1. Example 1 is structurally related to N-cyano-N'-(1,1-dimethylpropyl)-N''-3-pyridinylguanidine and has an EC50 of approximately 30 nM in the A10 assay. […] In FIG. 3 the Y axis represents the change in membrane potential elicited by Example 2. A positive change represents a hyperpolarization of the membrane potential caused by an opening of a KATP channel. The X axis represents increasing concentrations of Example 2. Example 2 is structurally related to N-cyano-N'-(1,1-dimethylpropyl)-N''-3-pyridinylguanidine and has an EC50 of approximately 30 nM in the A10 assay.
In FIG. 4A and 4B the Y axis represents a change in membrane potential. In these experiments, a change in the negative direction represents a hyperpolarization of the membrane potential caused by an opening of a KATP channel. In FIG. 4A and 4B the X axis represents time in minutes. Additional experiments indicate that 0.3 and 1.0 μM Example 3 also have no effect on the membrane potential of A10 cells (data not shown). […] Thus, within the azidophenylcyanoguanidine chemical series there are compounds that can be used to identify the cellular components required to open and close KATP close channels.

[2] = system: KATP channel in A10 cells; assay: Photoinactivation of KATP channels in A10 cells (UV pretreatment, then opener challenge); assay type: cell-based, rat; settings: for responsiveness to N-cyano-N'-(1,1-dimethylpropyl)-N''-3-pyridinylguanidine challenge after pretreatment and UV light: UV 254 nm, 1 min, challenge 1 μM, FIG. 5; for photoinactivation of the A10 KATP channel: compound and UV light
Excerpt: as §1
Photoinactivation of KATP channels in A10 cells was carried out on cells grown on coverglass chambers. A10 cells were grown to confluence and washed 3 times with EBSS-H. The A10 cells were then equilibrated for 15 min at 37° C. with 100 nM to 30 μM of the azidophenyl-cyanoguanidines. The A10 cells were exposed to 600 μwatts/cm^2 of 254 nm light for 1 min to photoactivate these azidophenyl-cyanoguanidines. After photolysis, the A10 cells were extensively washed with EBSS-H and finally placed in EBSS-H containing 5 μM DiBAC4 (3). The pretreated cells were then challenged with 1 μM N-cyano-N'-(1,1-dimethylpropyl)-N.increment.-3-pyridinylguanidine and changes in membrane potential were measured as described in Section I, above, ASSAY OF KATP CHANNEL MODULATORS. If the KATP channels in A10 cells were covalently photoinactivated by the azidophenyl-cyanoguanidines, then the cells would be unresponsive to the subsequent challenge of KATP openers such as N-cyano-N'-(1,1-dimethylpropyl)-N''-3-pyridinylguanidine. […]

[3] = system: calcium-activated potassium channel; assay: Responsiveness of photoinactivated A10 cells to agents that open the calcium-activated potassium channel; assay type: cell-based, rat; settings: maximum concentration and UV light
47 kilodalton protein = assay: Competition of photolabeling of the 47 kilodalton protein by nonradiolabeled compound; assay type: binding, rat
Experimental: (§2) To biochemically identify the proteins that specifically bind the azidophenylcyanguanidines, Example 1a, Example 2a and Example 3a were prepared. A10 cells were grown to confluence in standard culture plates and then washed extensively with EBSS-H. After the final wash, the cells were placed in EBSS-H containing one of the radiolabeled forms of the azidophenylcyanguanidine to be tested. The A10 cells were equilibrated with the radiolabeled compound for 15 minutes at 37° C. The A10 cells were placed on ice and exposed for 1 minute to 600 μwatts/cm^2 of 254 nm UV light. After photolysis, the A10 cells were washed extensively with phosphate buffered saline. Membranes from the A10 cells were solubilized in cocktail of 0.2% Triton X100 detergent and protease inhibitors. The membranes were precipitated with 4 volumes of ice cold acetone for 30 minutes. The precipitate membrane proteins were collected by centrifugation at 20,000 rpm for 30 rain at 4° C. in a Beckman SW-28 rotor. After centrifugation the supernate was discarded and the pellet was dissolved 2% sodium dodecyl sulfate (SDS) as described by O'Farrell (J. Biol. Chem. 250:4007-4021, 1975). The radiolabeled proteins were resolved on an SDS polyacrylamide gel and identified by autoradiography after the gel was stained and dried. […]

[4] = system: cyanoguanidine binding proteins; assay: Photolabeling of cyanoguanidine binding proteins in A10 cells (SDS gel, autoradiography); parameters: species or system rat; settings: for apparent molecular weight of the most prominent radiolabeled protein / number of radiolabeled proteins / molecular weight of radiolabeled protein: A10 membrane extracts, UV light
Experimental: (§3) To biochemically identify the proteins that specifically bind the azidophenylcyanguanidines, Example 1a, Example 2a and Example 3a were prepared. A10 cells were grown to confluence in standard culture plates and then washed extensively with EBSS-H. After the final wash, the cells were placed in EBSS-H containing one of the radiolabeled forms of the azidophenylcyanguanidine to be tested. The A10 cells were equilibrated with the radiolabeled compound for 15 minutes at 37° C. The A10 cells were placed on ice and exposed for 1 minute to 600 μwatts/cm^2 of 254 nm UV light. After photolysis, the A10 cells were washed extensively with phosphate buffered saline. Membranes from the A10 cells were solubilized in cocktail of 0.2% Triton X100 detergent and protease inhibitors. The membranes were precipitated with 4 volumes of ice cold acetone for 30 minutes. The precipitate membrane proteins were collected by centrifugation at 20,000 rpm for 30 rain at 4° C. in a Beckman SW-28 rotor. After centrifugation the supernate was discarded and the pellet was dissolved 2% sodium dodecyl sulfate (SDS) as described by O'Farrell (J. Biol. Chem. 250:4007-4021, 1975). The radiolabeled proteins were resolved on an SDS polyacrylamide gel and identified by autoradiography after the gel was stained and dried.

56 kilodalton protein = assay: Competition of photolabeling of the 56 kilodalton protein by nonradiolabeled compound; assay type: binding, rat; settings: nonradiolabeled Example 2, 1 nM to 30 uM
Experimental: as §2

[5] = target: T1, KATP channel in A10 rat aortic smooth muscle cells; assay: Reversal/block of N-cyano-N'-(1,1-dimethylpropyl)-N''-3-pyridinylguanidine-dependent KATP channel opening in A10 cells (membrane potential); assay type: cell-based
Excerpt: as §1
In FIG. 4A and 4B the Y axis represents a change in membrane potential. In these experiments, a change in the negative direction represents a hyperpolarization of the membrane potential caused by an opening of a KATP channel. In FIG. 4A and 4B the X axis represents time in minutes. […]

37 kilodalton protein = assay: Competition of photolabeling of the 37 kilodalton protein by nonradiolabeled compound; assay type: binding, rat; settings: nonradiolabeled Example 3, 1 nM to 30 uM
Experimental: as §3
(§4) There was also a 27 kilodalton protein that was radiolabeled by Example 3a and UV light.

27 kilodalton protein = assay: Competition of photolabeling of the 27 kilodalton protein by nonradiolabeled compound; assay type: binding, rat; settings: nonradiolabeled Example 3, 1 nM to 30 uM
Experimental: as §3, §4

SMILES: CCC(C)(C)N=C(NC#N)Nc1cc(Cl)cc(N=[N+]=[N-])c1 [Example 1, N-(3-azido-5-chlorophenyl)-N'-cyano-N"-(1,1-dimethylpropyl)guanidine]
- block of the hyperpolarizing effect by glyburide ([1]; data not shown): blocked
- EC50 [1]: ~30 nM
- potency relative to N-cyano-N'-(1,1-dimethylpropyl)-N''-3-pyridinylguanidine [1]: as potent as
- responsiveness to N-cyano-N'-(1,1-dimethylpropyl)-N''-3-pyridinylguanidine challenge after pretreatment and UV light [2]: concentration dependent loss
- photoinactivation of the A10 KATP channel [2]: specifically photoinactivated the A10 KATP channel
- responsiveness to agents that open the calcium-activated potassium channel after pretreatment [3]: remained responsive
- inhibition of radiolabeling of the 47 kilodalton protein by Example 1a (47 kilodalton protein; nonradiolabeled Example 1, 30 nM to 30 uM): specifically inhibited

SMILES: [3H]C([3H])([3H])C([3H])([3H])C(C)(C)NC(=NC#N)Nc1cc(Cl)cc(N=[N+]=[N-])c1 [Example 1a, N-(3-azido-5-chlorophenyl)-N'-cyano-N''-(1,1-dimethyl-2,2,3,3,3-T5-propyl)guanidine]
- apparent molecular weight of the most prominent radiolabeled protein [4]: 47 kilodaltons
- number of radiolabeled proteins [4]: several radiolabeled proteins
- labeling in the absence of UV light ([4]; no UV light, control experiments): no proteins were labeled

SMILES: CCC(C)(C)NC(=NC#N)Nc1cc([125I])cc(N=[N+]=[N-])c1 [Example 2a, N-(3-azido-5-iodo-^125 I-phenyl)-N'-cyano-N''-(1,1-dimethylpropyl) guanidine]
- molecular weight of radiolabeled protein [4]: 47 kilodalton and 56 kilodalton

SMILES: N#CN=C(Nc1cc([125I])cc(N=[N+]=[N-])c1)NC1(c2cccc(F)c2)CCC1 [Example 3a, N-(3-azido-5-iodo-125I-phenyl)-N'-cyano-N''-[1-(3-fluorophenyl)cyclobutyl]guanidine]
- apparent molecular weight of the most prominent radiolabeled protein [4]: 37 kilodaltons
- molecular weight of radiolabeled protein [4]: 27 kilodalton
- number of radiolabeled proteins [4]: several radiolabeled proteins

Now from value to compound, other results behind:

- block of the hyperpolarizing effect by glyburide ([1]; data not shown): blocked
- EC50 [1]: ~30 nM
- potency relative to N-cyano-N'-(1,1-dimethylpropyl)-N''-3-pyridinylguanidine [1]: as potent as
SMILES: CCC(C)(C)N=C(NC#N)Nc1cc(I)cc(N=[N+]=[N-])c1 [Example 2, N-(3-azido-5-iodophenyl)-N'-cyano-N''-(1,1-dimethylpropyl)guanidine]
- photoinactivation of the A10 KATP channel [2]: specifically photoinactivated the A10 KATP channel
- responsiveness to agents that open the calcium-activated potassium channel after pretreatment [3]: remained responsive
- inhibition of radiolabeling of the 47 kilodalton protein by Example 2a (47 kilodalton protein; nonradiolabeled Example 2, 1 nM to 30 uM): specifically inhibited
- inhibition of radiolabeling of the 56 kilodalton protein by Example 2a (56 kilodalton protein): specifically inhibited

- effect on the membrane potential of A10 cells ([1]; 0.3 μM, data not shown): no effect
- effect on the membrane potential of A10 cells ([1]; 1.0 μM, data not shown): no effect
- effect on the membrane potential of A10 cells ([1]; 10 μM, FIG. 4A): no effect
- reversal of the effect of N-cyano-N'-(1,1-dimethylpropyl)-N''-3-pyridinylguanidine ([5]; 10 μM, in continuing presence of 1 μM opener, FIG. 4B): reverses the effect
- block of opener-dependent opening of KATP channels ([5]; additional experiments, concentration dependence): in a concentration dependent manner
- mode of action on the KATP channel in A10 cells ([5]; conclusion from the data): blocker of the KATP channel
SMILES: N#CNC(=NC1(c2cccc(F)c2)CCC1)Nc1cc(I)cc(N=[N+]=[N-])c1 [Example 3, N-(3-azido-5-iodophenyl)-N'-cyano-N"-(1-(3-fluorophenyl)cyclobutyl)guanidine]
- inhibition of radiolabeling of the 37 kilodalton protein by Example 3a (37 kilodalton protein): specifically inhibited
- inhibition of radiolabeling of the 27 kilodalton protein by Example 3a (27 kilodalton protein): specifically inhibited

- opening of the A10 KATP channel with hyperpolarization ([1]; 1 μM, FIG. 4B): opens the A10 KATP channel
- block of the hyperpolarizing effect by glyburide ([1]; data not shown): blocked
- EC50 [1]: 30 nM
SMILES: CCC(C)(C)NC(=Nc1cccnc1)NC#N [N-cyano-N'-(1,1-dimethylpropyl)-N''-3-pyridinylguanidine, reference compound]
- responsiveness to N-cyano-N'-(1,1-dimethylpropyl)-N''-3-pyridinylguanidine challenge after pretreatment and UV light [2]: remain nearly completely responsive
